According to patent publication US20090170813A1, “Hypophosphorous Acid Derivatives and their Therapeutical Applications” (priority 2005, published 2009):
Like-named read-outs stand apart in the source and are kept apart here.

Experiments:
mGlu4R [1] = biological target: T1, mGlu4R (Homo sapiens, UniProt Q14833); settings: background statement; read-out: IC50 as competitive antagonist; cited from earlier work
rat mGlu4 = biological target: T2, rat mGlu4 (Rattus norvegicus, UniProt P31423); experiment: Agonist activity, [3H]phosphatidylinositol accumulation in HEK293 cells transfected with rat mGlu4 and Gqi9; assay type: cell-based
T2 construct: expressed in transfected cells; host or cells: HEK293
T2 sequence (P31423 33-912): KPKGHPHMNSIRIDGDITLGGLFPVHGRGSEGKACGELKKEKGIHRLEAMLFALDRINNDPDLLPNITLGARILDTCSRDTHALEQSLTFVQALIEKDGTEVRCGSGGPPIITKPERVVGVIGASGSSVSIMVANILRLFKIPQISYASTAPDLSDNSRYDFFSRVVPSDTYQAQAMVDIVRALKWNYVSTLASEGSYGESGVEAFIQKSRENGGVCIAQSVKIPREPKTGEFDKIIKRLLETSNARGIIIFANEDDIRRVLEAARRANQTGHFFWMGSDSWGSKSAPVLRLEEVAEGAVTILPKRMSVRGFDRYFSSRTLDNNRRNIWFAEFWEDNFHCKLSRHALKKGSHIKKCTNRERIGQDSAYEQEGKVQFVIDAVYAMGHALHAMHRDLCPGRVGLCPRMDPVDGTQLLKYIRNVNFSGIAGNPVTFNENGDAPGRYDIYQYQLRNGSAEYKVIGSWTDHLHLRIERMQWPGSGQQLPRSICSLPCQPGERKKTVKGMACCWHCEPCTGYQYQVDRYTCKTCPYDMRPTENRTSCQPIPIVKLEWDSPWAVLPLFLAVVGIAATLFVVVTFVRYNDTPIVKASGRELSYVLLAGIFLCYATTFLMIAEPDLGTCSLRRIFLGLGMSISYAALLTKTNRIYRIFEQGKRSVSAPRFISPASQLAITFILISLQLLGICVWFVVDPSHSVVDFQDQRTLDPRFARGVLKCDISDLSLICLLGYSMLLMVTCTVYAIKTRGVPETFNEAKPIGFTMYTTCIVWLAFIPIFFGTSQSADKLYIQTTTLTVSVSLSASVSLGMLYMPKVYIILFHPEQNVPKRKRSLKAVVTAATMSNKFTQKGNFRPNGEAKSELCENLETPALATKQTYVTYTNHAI
Description: Agonist activity of the compounds was tested on HEK293 cells transiently transfected with rat mGlu4 expressing plasmid pRKG4 and chimeric G-protein Gqi9 by electroporation, as described by Gomeza, J. et al, Mol. Pharmacol; 1996, 50, 923-930.
Cells were plated in 96-well culture plates and labeled overnight with [^3H]myoinositol. The day after, cells were washed three times with Krebs buffer, incubated for 10 min with LiCl 5 mM, and then incubated for 30 min in the absence (basal) or in the presence of the indicated compounds at 1 nM up to 1000 μM. The total amount of [^3H]phosphatidylinositol accumulated in the cells was determined after Dowex purification as previously by Goudet C, et al, Prod. Natl. Acad. Sci. USA 2004, 101, 378-383.
The response dosis curves were adjusted by using equatrier y=[(Ymax−ymin)/(1+(x/EC50)^n)]+ymin where EC50 is the concentration necessary for obtaining half of the maximal effect and n is Hill coefficient.

mGlu7 = mGlu7 (Homo sapiens, UniProt Q14831); experiment: Agonist activity on group III receptor mGlu7
mGlu7, sequence (Q14831 35-915): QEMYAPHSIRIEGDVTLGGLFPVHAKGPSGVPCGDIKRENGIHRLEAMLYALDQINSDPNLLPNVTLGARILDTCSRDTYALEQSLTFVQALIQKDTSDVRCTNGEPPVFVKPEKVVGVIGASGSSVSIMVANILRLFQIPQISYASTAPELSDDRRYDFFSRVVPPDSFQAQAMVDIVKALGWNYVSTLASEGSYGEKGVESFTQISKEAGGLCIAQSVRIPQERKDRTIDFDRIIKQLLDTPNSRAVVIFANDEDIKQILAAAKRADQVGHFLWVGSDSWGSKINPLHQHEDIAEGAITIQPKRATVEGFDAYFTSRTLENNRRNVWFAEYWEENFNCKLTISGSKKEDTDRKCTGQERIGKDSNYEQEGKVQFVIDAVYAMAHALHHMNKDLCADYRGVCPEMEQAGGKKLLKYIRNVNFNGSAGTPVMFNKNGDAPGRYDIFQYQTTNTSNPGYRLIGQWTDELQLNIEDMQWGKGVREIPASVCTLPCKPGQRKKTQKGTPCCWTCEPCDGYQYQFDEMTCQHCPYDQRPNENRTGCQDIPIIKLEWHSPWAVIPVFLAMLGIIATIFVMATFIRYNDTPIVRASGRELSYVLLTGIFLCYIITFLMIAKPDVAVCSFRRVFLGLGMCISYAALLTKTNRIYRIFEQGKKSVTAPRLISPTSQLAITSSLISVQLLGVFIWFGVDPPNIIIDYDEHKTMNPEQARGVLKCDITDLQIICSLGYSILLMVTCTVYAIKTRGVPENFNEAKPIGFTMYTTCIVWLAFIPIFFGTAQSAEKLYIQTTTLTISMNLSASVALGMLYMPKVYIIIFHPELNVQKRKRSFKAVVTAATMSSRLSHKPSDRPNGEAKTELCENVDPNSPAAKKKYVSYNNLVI

mGlu8 = mGlu8 (Homo sapiens, UniProt O00222); experiment: Agonist activity on group III receptor mGlu8
mGlu8, sequence (O00222 34-908): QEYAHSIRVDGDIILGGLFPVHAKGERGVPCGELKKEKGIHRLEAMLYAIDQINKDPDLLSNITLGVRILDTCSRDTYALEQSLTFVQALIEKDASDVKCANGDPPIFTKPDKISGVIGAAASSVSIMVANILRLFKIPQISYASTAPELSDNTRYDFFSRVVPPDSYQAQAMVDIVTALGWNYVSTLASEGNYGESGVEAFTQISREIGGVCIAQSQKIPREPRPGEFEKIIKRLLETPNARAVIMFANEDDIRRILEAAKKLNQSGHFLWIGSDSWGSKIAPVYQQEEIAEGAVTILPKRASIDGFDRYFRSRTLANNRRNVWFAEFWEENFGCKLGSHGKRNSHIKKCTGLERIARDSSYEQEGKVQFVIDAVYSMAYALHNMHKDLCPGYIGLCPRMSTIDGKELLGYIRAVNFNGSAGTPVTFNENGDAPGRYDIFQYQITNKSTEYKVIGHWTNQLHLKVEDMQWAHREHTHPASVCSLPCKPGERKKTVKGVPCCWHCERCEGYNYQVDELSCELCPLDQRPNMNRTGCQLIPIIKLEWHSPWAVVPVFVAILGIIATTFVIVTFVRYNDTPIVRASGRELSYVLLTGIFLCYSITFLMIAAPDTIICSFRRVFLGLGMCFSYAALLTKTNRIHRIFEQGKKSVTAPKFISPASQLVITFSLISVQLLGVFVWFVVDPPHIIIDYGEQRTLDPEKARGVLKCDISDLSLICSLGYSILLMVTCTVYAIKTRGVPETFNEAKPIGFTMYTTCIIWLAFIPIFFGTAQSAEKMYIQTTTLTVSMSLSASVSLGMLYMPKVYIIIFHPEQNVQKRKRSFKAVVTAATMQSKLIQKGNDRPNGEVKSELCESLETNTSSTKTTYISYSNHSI

mGlu4R [2] = biological target: T1, mGlu4R; settings: background statement; read-out: EC50 as mGlu4R agonist; cited from earlier work
[3] = Table 1, mean ± spread (n), read-out: EC50 mGlu4
[4] = Table 2, n in brackets, read-out: mGlu4 EC50 μM (n)

T1 sequence (Q14833 33-912): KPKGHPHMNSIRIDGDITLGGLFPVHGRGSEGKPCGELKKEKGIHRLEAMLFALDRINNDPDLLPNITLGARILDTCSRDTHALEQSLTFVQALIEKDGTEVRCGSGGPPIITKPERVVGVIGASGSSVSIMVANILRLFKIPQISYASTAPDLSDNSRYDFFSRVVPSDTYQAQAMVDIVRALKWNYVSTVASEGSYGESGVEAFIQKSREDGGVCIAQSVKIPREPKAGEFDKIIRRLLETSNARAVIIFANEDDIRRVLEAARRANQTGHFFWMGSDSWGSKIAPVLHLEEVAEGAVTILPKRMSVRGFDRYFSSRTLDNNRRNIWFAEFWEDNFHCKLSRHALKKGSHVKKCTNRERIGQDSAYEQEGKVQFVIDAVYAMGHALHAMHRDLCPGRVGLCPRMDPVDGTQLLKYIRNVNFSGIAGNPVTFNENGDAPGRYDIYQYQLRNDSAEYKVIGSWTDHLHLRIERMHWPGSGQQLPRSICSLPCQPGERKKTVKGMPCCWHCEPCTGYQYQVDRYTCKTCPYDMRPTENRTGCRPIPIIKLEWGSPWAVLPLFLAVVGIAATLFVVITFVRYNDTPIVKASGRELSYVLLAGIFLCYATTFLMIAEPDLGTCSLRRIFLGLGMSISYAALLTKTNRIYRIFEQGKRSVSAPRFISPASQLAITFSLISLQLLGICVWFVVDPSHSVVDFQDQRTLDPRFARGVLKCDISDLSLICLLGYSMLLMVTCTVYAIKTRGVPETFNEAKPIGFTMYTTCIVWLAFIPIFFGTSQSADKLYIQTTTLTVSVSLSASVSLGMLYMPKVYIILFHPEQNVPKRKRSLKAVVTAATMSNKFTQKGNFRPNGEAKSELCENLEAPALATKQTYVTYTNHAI

For CC(N)(CCP(=O)(O)O)C(=O)O (stereo not drawn) [α-methyl analogue], the IC50 (mGlu4R [1]) is listed as 100 µM.
With N[C@H](CCP(=O)(O)CCC(=O)O)C(=O)O [(3R)-PCEP, 3-amino-carboxy-propyl-2′-carboxy-ethylphosphinic acid, reference compound] the EC50 (rat mGlu4; [3]) was 24.2 ± 7.6 µM, the EC50 (mGlu7; read-out: EC50 mGlu7, Table 1) was greater than 1000 µM and the EC50 (mGlu8; read-out: EC50 mGlu8, Table 1, mean ± spread (n)) was 58.2 ± 8.8 µM.
Work on NC(CCP(=O)(O)CCC(=O)O)C(=O)O (racemic) [Compound 4, 3-[((3-Amino-3-carboxy)propyl)(hydroxy)phosphinyl]propanoic Acid] yielded an EC50 (rat mGlu4; [3]) of 6.6 ± 2.8 µM, an EC50 (rat mGlu4; [4]) of 7.1 µM and an EC50 (mGlu7) greater than 1000 µM. It also gave an EC50 (mGlu8) of 24.2 ± 9 µM.
In the case of NC(CCP(=O)(O)O)C(=O)O [L-AP4], the EC50 (mGlu4R [2]) is given as 0.32 µM.
N[C@@H](CCP(=O)(O)C(O)c1ccc(C(=O)O)cc1)C(=O)O (stereo partly drawn) [Compound 40, (3S)-4-[(((3-amino-3-carboxy)propyl)(hydroxy)phosphinyl)-hydroxymethyl]benzoic Acid] showed an EC50 (rat mGlu4; [4]) of 31.8 µM.
